Results from patent publication US10208081B2, “Bile acid derivatives as FXR/TGR5 agonists and methods of use thereof” (Enanta Pharmaceuticals, Inc., priority 2014, dated 2019).

Molecular target: human FXR (NR1H4) (Homo sapiens (Human), UniProt Q96RI1)
Test: Human FXR (NR1H4) Assay (Gal4 promoter driven luciferase reporter, Indigo Bioscience kit IB00601)
Type: cell-based
Conditions: for Efficacy (%): efficacy normalized to CDCA set as 100%; for EC50: potency ranges
Source text: Assays Human FXR (NR1H4) Assay
Determination of a ligand mediated Gal4 promoter driven transactivation quantify ligand binding mediated activation of FXR. FXR Reporter Assay kit purchased from Indigo Bioscience (Catalogue number: IB00601) to determine the potency and efficacy of compound developed by Enanta that can induce FXR activation. The principle application of this reporter assay system is to quantify functional activity of human FXR. The assay utilizes non-human mammalian cells, CHO (Chinese hamster ovary) cells engineered to express human NR1H4 protein (referred to as FXR). Reporter cells also incorporate the cDNA encoding beetle luciferase which catalyzes the substrates and yields photon emission. Luminescence intensity of the reaction is quantified using a plate-reading luminometer, Envision. Reporter Cells include the luciferase reporter gene functionally linked to an FXR responsive promoter. Thus, quantifying changes in luciferase expression in the treated reporter cells provides a sensitive surrogate measure of the changes in FXR activity. […] The assay is according to the manufacturer's instructions. In brief, the assay was performed in white, 96 well plates using final volume of 100 ul containing cells with different doses of compounds. Retrieve Reporter Cells from −80° C. storage. Perform a rapid thaw of the frozen cells by transferring a 10 ml volume of 37° C. cell recovery medium into the tube of frozen cells. Recap the tube of Reporter Cells and immediately place it in a 37° C. water bath for 5-10 minutes. Retrieve the tube of Reporter Cell Suspension from the water bath. Sanitize the outside surface of the tube with a 70% alcohol swab, and then transfer it into the cell culture hood. Dispense 90 μl of cell suspension into each well of the 96-well Assay Plate. Transfer the plate into 37° C. incubator, allowing the cells adherent to the bottom of the well. Dilute compounds in Dilution Plate (DP), and administrate to cells at Assay Plate (AP). DMSO content of the samples was kept at 0.2%. Cells were incubated for additional 22 hours before luciferase activities were measured. Thirty minutes before intending to quantify FXR activity, remove Detection Substrate and Detection Buffer from the refrigerator and place them in a low-light area so that they may equilibrate to room temperature. Remove the plate's lid and discard all media contents by ejecting it into an appropriate waste container. Gently tap the inverted plate onto a clean absorbent paper towel to remove residual droplets. Cells will remain tightly adhered to well bottoms. Add 100 μl of luciferase detection reagent to each well of the assay plate. Allow the assay plate to rest at room temperature for at least 5 minutes following the addition of LDR. Set the instrument (Envision) to perform a single 5 second “plate shake” prior to reading the first assay well. Read time may be 0.5 second (500 mSec) per well.

Chain of human FXR (NR1H4) (Q96RI1 whole entry, the tested form may be a part): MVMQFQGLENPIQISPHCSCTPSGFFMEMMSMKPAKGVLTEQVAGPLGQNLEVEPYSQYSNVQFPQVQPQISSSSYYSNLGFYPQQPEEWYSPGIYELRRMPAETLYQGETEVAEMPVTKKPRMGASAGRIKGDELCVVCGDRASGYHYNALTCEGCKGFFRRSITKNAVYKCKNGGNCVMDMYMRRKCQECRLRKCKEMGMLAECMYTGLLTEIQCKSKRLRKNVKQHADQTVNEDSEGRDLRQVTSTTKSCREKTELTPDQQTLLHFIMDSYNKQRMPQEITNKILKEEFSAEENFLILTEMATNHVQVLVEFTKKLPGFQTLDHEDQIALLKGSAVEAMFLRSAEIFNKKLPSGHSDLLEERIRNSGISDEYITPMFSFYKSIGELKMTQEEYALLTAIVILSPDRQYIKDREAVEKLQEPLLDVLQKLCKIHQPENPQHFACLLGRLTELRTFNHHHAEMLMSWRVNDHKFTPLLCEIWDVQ

Compound	Efficacy (%)	EC50 [nM]
CC[C@H]1[C@@H](O)[C@@H]2[C@H](CC[C@]3(C)[C@@H]([C@H](C)CCNC(=O)NS(=O)(=O)c4ccc(-c5ccno5)cc4C)CC[C@@H]23)[C@@]2(C)CC[C@@H](O)C[C@@H]12 [Example 72]	384	100 to 1000
CC[C@H]1[C@@H](O)[C@@H]2[C@H](CC[C@]3(C)[C@@H]([C@H](C)CCNC(=O)NS(=O)(=O)c4ccc(-c5ccno5)cc4OC)CC[C@@H]23)[C@@]2(C)CC[C@@H](O)C[C@@H]12 [Example 73]	444	100 to 1000
CC[C@H]1[C@@H](O)[C@@H]2[C@H](CC[C@]3(C)[C@@H]([C@H](C)CCNC(=O)NS(=O)(=O)N4CCC5(CC4)COC5)CC[C@@H]23)[C@@]2(C)CC[C@@H](O)C[C@@H]12 [Example 74]	242	100 to 1000
CC[C@H]1[C@@H](O)[C@@H]2[C@H](CC[C@]3(C)[C@@H]([C@H](C)CCNC(=O)NS(=O)(=O)N4C[C@@H](C)O[C@@H](C)C4)CC[C@@H]23)[C@@]2(C)CC[C@@H](O)C[C@@H]12 [Example 75]	323	< 100
CC[C@H]1[C@@H](O)[C@@H]2[C@H](CC[C@]3(C)[C@@H]([C@H](C)CCNC(=O)NS(=O)(=O)C4CC5CCC4C5)CC[C@@H]23)[C@@]2(C)CC[C@@H](O)C[C@@H]12 (stereo partly shown) [Example 76]	290	< 100
CC[C@H]1[C@@H](O)[C@@H]2[C@H](CC[C@]3(C)[C@@H]([C@H](C)CCNC(=O)NS(=O)(=O)c4ccc(-c5cnc(C)o5)cc4C)CC[C@@H]23)[C@@]2(C)CC[C@@H](O)C[C@@H]12 [Example 79]	249	100 to 1000
CC[C@H]1[C@@H](O)[C@@H]2[C@H](CC[C@]3(C)[C@@H]([C@H](C)CCNC(=O)NS(=O)(=O)c4cccc(-c5nc(C)cs5)c4)CC[C@@H]23)[C@@]2(C)CC[C@@H](O)C[C@@H]12 [Example 80]	295	100 to 1000
CC[C@H]1[C@@H](O)[C@@H]2[C@H](CC[C@]3(C)[C@@H]([C@H](C)CCNC(=O)NS(=O)(=O)N4CC(F)(F)C(F)(F)C4)CC[C@@H]23)[C@@]2(C)CC[C@@H](O)C[C@@H]12 [Example 81]	315	< 100
CC[C@H]1[C@@H](O)[C@@H]2[C@H](CC[C@]3(C)[C@@H]([C@H](C)CCNC(=O)NS(=O)(=O)N4C[C@@H](C)O[C@H](C)C4)CC[C@@H]23)[C@@]2(C)CC[C@@H](O)C[C@@H]12 [Example 82]	321	< 100
CC[C@H]1[C@@H](O)[C@@H]2[C@H](CC[C@]3(C)[C@@H]([C@H](C)CCNC(=O)NS(=O)(=O)N4CCS(=O)(=O)CC4)CC[C@@H]23)[C@@]2(C)CC[C@@H](O)C[C@@H]12 [Example 83]	348	1000 to 10000
CC[C@H]1[C@@H](O)[C@@H]2[C@H](CC[C@]3(C)[C@@H]([C@H](C)CCNC(=O)NS(=O)(=O)N4CCN(C(C)(C)C)CC4)CC[C@@H]23)[C@@]2(C)CC[C@@H](O)C[C@@H]12 [Example 84]	351	100 to 1000
CC[C@H]1[C@@H](O)[C@@H]2[C@H](CC[C@]3(C)[C@@H]([C@H](C)CCNC(=O)NS(=O)(=O)N4CCN(C(=O)C(C)(C)C)CC4)CC[C@@H]23)[C@@]2(C)CC[C@@H](O)C[C@@H]12 [Example 85]	324	100 to 1000
CC[C@H]1[C@@H](O)[C@@H]2[C@H](CC[C@]3(C)[C@@H]([C@H](C)CCNC(=O)NS(=O)(=O)N4CCC5(CC4)CC5)CC[C@@H]23)[C@@]2(C)CC[C@@H](O)C[C@@H]12 [Example 86]	390	< 100
CC[C@H]1[C@@H](O)[C@@H]2[C@H](CC[C@]3(C)[C@@H]([C@H](C)CCNC(=O)NS(=O)(=O)C4CCC(C(C)(C)C)CC4)CC[C@@H]23)[C@@]2(C)CC[C@@H](O)C[C@@H]12 (stereo partly shown) [Example 88]	378	< 100
CC[C@H]1[C@@H](O)[C@@H]2[C@H](CC[C@]3(C)[C@@H]([C@H](C)CCNC(=O)NS(=O)(=O)C4CCC(F)(F)CC4)CC[C@@H]23)[C@@]2(C)CC[C@@H](O)C[C@@H]12 [Example 89]	351	< 100
CCCCS(=O)(=O)NC(=O)NCC[C@@H](C)[C@H]1CC[C@H]2[C@@H]3[C@H](O)[C@H](CC)[C@@H]4C[C@H](O)CC[C@]4(C)[C@H]3CC[C@]12C [Example 90]	407	< 100
CC[C@H]1[C@@H](O)[C@@H]2[C@H](CC[C@]3(C)[C@@H]([C@H](C)CCNC(=O)NS(=O)(=O)N(C)C)CC[C@@H]23)[C@@]2(C)CC[C@@H](O)C[C@@H]12 [Example 91]	399	< 100
CC[C@H]1[C@@H](O)[C@@H]2[C@H](CC[C@]3(C)[C@@H]([C@H](C)CCNC(=O)NS(=O)(=O)c4c(F)c(F)c(F)c(F)c4F)CC[C@@H]23)[C@@]2(C)CC[C@@H](O)C[C@@H]12 [Example 92]	325	1000 to 10000
CC[C@H]1[C@@H](O)[C@@H]2[C@H](CC[C@]3(C)[C@@H]([C@H](C)CCNC(=O)NS(=O)(=O)c4ccc(C)cc4)CC[C@@H]23)[C@@]2(C)CC[C@@H](O)C[C@@H]12 [Example 93]	443	< 100
CC[C@H]1[C@@H](O)[C@@H]2[C@H](CC[C@]3(C)[C@@H]([C@H](C)CCNC(=O)NS(=O)(=O)c4ccc(F)cc4)CC[C@@H]23)[C@@]2(C)CC[C@@H](O)C[C@@H]12 [Example 94]	361	< 100
CC[C@H]1[C@@H](O)[C@@H]2[C@H](CC[C@]3(C)[C@@H]([C@H](C)CCNC(=O)NS(=O)(=O)N4[C@H](C)CCC[C@@H]4C)CC[C@@H]23)[C@@]2(C)CC[C@@H](O)C[C@@H]12 [Example 96]	387	< 100
CC[C@H]1[C@@H](O)[C@@H]2[C@H](CC[C@]3(C)[C@@H]([C@H](C)CCNC(=O)NS(=O)(=O)N4C[C@H](C)C[C@H](C)C4)CC[C@@H]23)[C@@]2(C)CC[C@@H](O)C[C@@H]12 [Example 97]	308	< 100
CC[C@H]1[C@@H](O)[C@@H]2[C@H](CC[C@]3(C)[C@@H]([C@H](C)CCNC(=O)NS(=O)(=O)N4C(C)CCC4C)CC[C@@H]23)[C@@]2(C)CC[C@@H](O)C[C@@H]12 (stereo partly shown) [Example 98]	344	< 100
CC[C@H]1[C@@H](O)[C@@H]2[C@H](CC[C@]3(C)[C@@H]([C@H](C)CCNC(=O)NS(=O)(=O)N4CC(C)C(C)C4)CC[C@@H]23)[C@@]2(C)CC[C@@H](O)C[C@@H]12 (stereo partly shown) [Example 99]	266	< 100
CC[C@H]1[C@@H](O)[C@@H]2[C@H](CC[C@]3(C)[C@@H]([C@H](C)CCNC(=O)NS(=O)(=O)c4nccs4)CC[C@@H]23)[C@@]2(C)CC[C@@H](O)C[C@@H]12 [Example 100]	364	1000 to 10000
CC[C@H]1[C@@H](O)[C@@H]2[C@H](CC[C@]3(C)[C@@H]([C@H](C)CCNC(=O)NS(=O)(=O)C4CCC(C)(C)CC4)CC[C@@H]23)[C@@]2(C)CC[C@@H](O)C[C@@H]12 [Example 101]	244	< 100
CC[C@H]1[C@@H](O)[C@@H]2[C@H](CC[C@]3(C)[C@@H]([C@H](C)CCNC(=O)NS(=O)(=O)c4cc(F)cc(F)c4)CC[C@@H]23)[C@@]2(C)CC[C@@H](O)C[C@@H]12 [Example 102]	210	< 100
CC[C@H]1[C@@H](O)[C@@H]2[C@H](CC[C@]3(C)[C@@H]([C@H](C)CCNC(=O)NS(=O)(=O)c4cc(F)cc(OC)c4)CC[C@@H]23)[C@@]2(C)CC[C@@H](O)C[C@@H]12 [Example 103]	328	< 100
CC[C@H]1[C@@H](O)[C@@H]2[C@H](CC[C@]3(C)[C@@H]([C@H](C)CCNC(=O)NS(=O)(=O)C(F)(F)F)CC[C@@H]23)[C@@]2(C)CC[C@@H](O)C[C@@H]12 [Example 104]	298	1000 to 10000
